The values below come from ChEMBL document CHEMBL4680267, “Design, synthesis and biological evaluation of 7-substituted 4-phenyl-6H-imidazo[1,5-a]thieno[3,2-f] [1,4]diazepines as safe anxiolytic agents” (Eur J Med Chem, 2020).

The nature of series [1]: Displacement of [3H]flunitrazepam from Benzodiazepine receptor in Sprague-Dawley rat cerebral cortex membrane measured after 30 mins by liquid scintillation spectrometry analysis. The format is cell membranes.
The nature of series [2]: Displacement of [3H]flunitrazepam from Benzodiazepine receptor in Sprague-Dawley rat cerebral cortex membrane preincubated for 10 mins followed by [3H]flunitrazepam addition and measured after 60 mins by liquid scintillation spectroscopy analysis. It is filed as cell membranes. (In general: In a radioligand displacement assay an active substance lowers the binding of a labelled ligand.)

The test system of series [3] is Mus musculus. Put plainly: Anxiolytic activity in mouse assessed as increase in time spent in lighted compartment at 30 mg/kg, po measured after 30 mins by light-dark box test (reference value: 122.3 +/- 8.5 secs). The format is functional. The following applies: 0.5 h.
In series [4] the test system is Mus musculus. Nature of the series: Anxiolytic activity in mouse assessed as increase in time spent in lighted compartment at 10 mg/kg, po measured after 30 mins by light-dark box test (reference value: 122.3 +/- 8.5 secs). Conditions: 0.5 h. It is filed as functional.
For the next series, the species on record is Rattus norvegicus. Nature of the series: Displacement of [3H]-Flumazenil from Central type benzodiazepine receptor in rat cerebral cortex membrane at 10 uM incubated for 90 mins by liquid scintillation counting method relative to control. The format is cell membranes.
Series [5] is described as follows: Displacement of [3H]-Flumazenil from Central type benzodiazepine receptor in rat cerebral cortex membrane incubated for 90 mins by liquid scintillation counting method. The format is cell membranes.
Series [6] relates to Mus musculus. Nature of the series: Anticonvulsive activity in mouse assessed as protection against pentylenetetrazole-induced seizure at 30 mg/kg, po administered 30 mins prior to pentylenetetrazole challenge and measured for 30 mins. The format is functional. The following applies: time 60 min, 1 h.
Series [7] deals with Mus musculus. Put plainly: Anticonvulsive activity in mouse assessed as protection against pentylenetetrazole-induced seizure at 10 mg/kg, po administered 30 mins prior to pentylenetetrazole challenge and measured for 30 mins. It is filed as functional. Conditions: time 60 min, 1 h.
The subject of series [8] is Mus musculus. Nature of the series: Anti-amnesic activity in mouse model of scopolamine-induced cognitive deficit assessed as latency time to enter dark compartment in training session at 10 mg/kg, po and mesured for 30 mins by passive avoidance test (reference value: 14.2 +/- 2.2 secs). It is filed as functional. Conditions: 0.5 h.
Series [9] has as its system Mus musculus. Nature of the series: Anti-amnesic activity in mouse model of scopolamine-induced cognitive deficit assessed as latency time to enter dark compartment in training session at 30 mg/kg, po and measured for 30 mins by passive avoidance test (reference value: 14.2 +/- 2.2 secs). It is filed as functional. Conditions: 0.5 h.
Series [10] relates to Mus musculus. Put plainly: Anti-amnesic activity in mouse model of scopolamine-induced cognitive deficit assessed as latency time to enter dark compartment in retension session at 10 mg/kg, po and measured after 24 hrs by passive avoidance test (reference value: 46.2 +/- 8.9 secs). The format is functional.
In series [11] the test system is Mus musculus. Put plainly: Anti-amnesic activity in mouse model of scopolamine-induced cognitive deficit assessed as latency time to enter dark compartment in retension session at 30 mg/kg, po and measured after 24 hrs by passive avoidance test (reference value: 46.2 +/- 8.9 secs). It is filed as functional.
A short description of series [12]: Hypnotic activity in mouse assessed as phenobarbital induced sleep induction time at 30 mg/kg, po administered 30 mins prior to phenobarbital challenge and measured for 30 mins (reference value: 4.4 +/- 1.1 min). The following applies: in vivo, 1 h, time 60 min. The format is ADME, organism-based.
Series [13] is described as follows: Hypnotic activity in mouse assessed as phenobarbital induced sleep endurance time at 30 mg/kg, po administered 30 mins prior to phenobarbital challenge and measured for 30 mins (reference value: 27.4 +/- 2.3 min). The following applies: in vivo, 1 h, time 60 min. The format is ADME, organism-based.
The nature of series [14]: Effect on motor coordination in mouse assessed as number of falls from rotarod at 30 mg/kg, po measured for 30 mins by rotarod test (reference value: 2.2 +/- 0.2). The format is ADME, organism-based. Conditions: in vivo, 0.5 h.
A short description of series [15]: Effect on locomotor activity in mouse at 30 mg/kg, po measured after 30 mins by hole-board test. It is filed as ADME, organism-based. The following applies: in vivo, 0.5 h.
Series [16] in a line: Effect on explorative activity in mouse assessed as exploration of holes at 30 mg/kg, po measured after 30 mins by hole-board test. The format is ADME, organism-based. The following applies: in vivo, 0.5 h.
A short description of series [17]: Displacement of [3H]diazepam from Benzodiazepine receptor in rat cerebral cortex membrane. It is filed as cell membranes.
The nature of series [18]: Hypnotic activity in mouse assessed as phenobarbital induced sleep endurance time at 2 mg/kg, sc administered 30 mins prior to phenobarbital challenge and measured for 30 mins (reference value: 27.4 +/- 2.3 min). The format is ADME, organism-based. The following applies: in vivo, 1 h, time 60 min.

For orientation: IC50 means the concentration at which inhibition is half-maximal. `Cc1nnc2n1-c1sc(Br)cc1C(c1ccccc1Cl)=NC2` [BROTIZOLAM] registered an IC50 in [1] of 2.6 nM.

As to `CCc1cc2c(s1)-n1c(C)nnc1CN=C2c1ccccc1Cl` [ETIZOLAM], the 50% inhibitory concentration (IC50) in series [2] came to 4.5 nM.

By inhibition is commonly meant the percentage by which the read-out fell short of the control. Low readings indicate a response near the control, high ones a response far below the control. `CC(C)(C)OC(=O)c1ncn2c1CN=C(c1ccc(F)cc1)c1ccsc1-2`: the Time in the series on Mus musculus [3] is 169.4 s; in the series with Mus musculus [4] it was 145.6 min; with Mus musculus [8] it was 12.8 s; with Mus musculus [9], 16.5 s; in the series on Mus musculus [10], 67.1 s; with Mus musculus [11], 85.9 s. The figures for the Time in [12] and in series [13] were 4.7 min and 27.2 min, respectively. For the same molecule, in the series listed under Rattus norvegicus, the inhibition is more than 80%. Also, the 50% inhibitory concentration (IC50) in series [5] is 10.2 nM. Moreover, the Activity in the series with Mus musculus [6] is 40%; in the series on Mus musculus [7], 20%; in [14], 2.1; in [15], 26.7; in series [16], 17.5.

In the case of `CCOC(=O)c1ncn2c1CN=C(c1ccccc1)c1ccsc1-2`, the Time was determined as 166.2 s in the series with Mus musculus [3]; 131.3 min in the series with Mus musculus [4]; 13.6 s in the series with Mus musculus [8]; 18.1 s in the series on Mus musculus [9]; 54.1 s in the series on Mus musculus [10]; 88.6 s with Mus musculus [11]. Besides, the Time was 3.9 min in [12] and 23.8 min in series [13]. The inhibition in the series filed under Rattus norvegicus is more than 80%. Further, the IC50 in series [5] is 11.7 nM. The Activity with Mus musculus [6] is given as 10%; in series [14], 1.9; in series [15], 28.2; in [16], 19.1.

In turn, `CCOC(=O)c1ncn2c1CN(C)C(=O)c1cc(F)ccc1-2` [FLUMAZENIL] registered a 50% inhibitory concentration (IC50) in series [17] of 2.3 nM.

Regarding `CCOC(=O)c1ncn2c1CN=C(c1ccc(F)cc1)c1ccsc1-2`, the Time was 151.2 s in the series on Mus musculus [3]; 109.8 min with Mus musculus [4]; 13.9 s in the series on Mus musculus [8]; 14.7 s with Mus musculus [9]; 55.8 s in the series on Mus musculus [10]; 89.2 s in the series with Mus musculus [11]. Further, the Time came out at 5.5 min in series [12] and 29.2 min in [13]. The same molecule yielded an inhibition in the series listed under Rattus norvegicus of more than 80%. The IC50 in [5] amounted to 16.2 nM. The Activity in the series with Mus musculus [6] is 0%; in [14], 2.2; in series [15], 34.5; in series [16], 15.8.

On to `CC(C)(C)OC(=O)c1ncn2c1CN=C(c1cccc(F)c1)c1ccsc1-2`, for which the Time is on record as 143.8 s with Mus musculus [3]; 118.3 min in the series with Mus musculus [4]; 18.2 s in the series with Mus musculus [8]; 15.6 s in the series with Mus musculus [9]; 51.4 s with Mus musculus [10]; 72.5 s in the series with Mus musculus [11]. Also, the Time is recorded as 3.5 min in [12] and 25.9 min in [13]. In the series filed under Rattus norvegicus, this molecule gave an inhibition of more than 80%. For the same molecule, the IC50 in [5] came to 9.61 nM. Further, the Activity in the series on Mus musculus [6] is recorded as 0%; in series [14], 1.9; in series [15], 29.5; in series [16], 17.5.

Turning to `CC(C)(C)OC(=O)c1ncn2c1CN=C(c1ccccc1)c1ccsc1-2`, the Time in the series with Mus musculus [3] is reported as 151.4 s; in the series on Mus musculus [4] it was 113.6 min; in the series on Mus musculus [8], 15.4 s; in the series on Mus musculus [9], 17.2 s; in the series on Mus musculus [10], 46.9 s; with Mus musculus [11], 70.3 s. Besides, the figures for the Time in [12] and in series [13] were 4.4 min and 28.8 min, respectively. The same molecule had an inhibition in the series listed under Rattus norvegicus of more than 80%. This molecule came in with an IC50 in series [5] of 5.19 nM. Moreover, the Activity in the series on Mus musculus [6] amounted to 20%; in series [14] it was 2.4; in series [15] it was 33.4; in series [16], 15.9.

Take `CN1C(=O)CN=C(c2ccccc2)c2cc(Cl)ccc21` [DIAZEPAM]: the Time in the series with Mus musculus [4] was 165.6 min. This molecule returned a concentration for half-maximal inhibition (IC50) in series [5] of 18.5 nM. The Activity with Mus musculus [7] stood at 100%.

For the molecule `CC(N)Cc1ccccc1` (configuration not stated) [AMPHETAMINE], in series [18], the Time amounted to 22.2 min.

As to `CCOC(=O)c1ncn2c1CN=C(c1cccc(F)c1)c1ccsc1-2`, the Time is reported as 163.9 s with Mus musculus [3]; 111.3 min in the series with Mus musculus [4]; 14.9 s in the series on Mus musculus [8]; 17.4 s in the series on Mus musculus [9]; 39.2 s in the series on Mus musculus [10]; 75.3 s in the series with Mus musculus [11]. Moreover, the Time in series [12] turned out to be 5.2 min; in [13], 24.9 min. Moreover, the inhibition in the series listed under Rattus norvegicus is more than 80%. The same molecule came in with a half-inhibitory concentration (IC50) in [5] of 8.66 nM. Besides, the Activity was determined as 20% with Mus musculus [6], 2.5 in [14], 27.3 in [15] and 15.3 in [16].
